# Source: US7429592B2, “Cyanoanthranilamide derivatives and the use thereof as medicaments” (Schering Aktienegesellschaft, priority 2001, dated 2008)
# Columns and labels:
# VEGFR II (KDR) = VEGFR II (KDR) (Homo sapiens, UniProt P35968); assay: Inhibition of the KDR kinase activity (33P-ATP, poly-(Glu4Tyr) substrate, phosphocellulose filter); format: biochemical; details: 10 minutes at room temperature; phosphate incorporation
# Description: • Stock solution A: 3 mmol of ATP in water, pH 7.0 (−70° C.) • Stock solution B: g-33P-ATP 1 mCi/100 μl • Stock solution C: poly-(Glu4 Tyr) 10 mg/ml in water Solution for Dilutions • Substrate solvent: 10 mmol of DTT, 10 mmol of manganese chloride, 100 mmol of magnesium chloride • Enzyme solution: 120 mmol of tris/HCl, pH 7.5, […] of sodium vanadium oxide
# Inhibition of the KDR- and FLT-1 Kinase Activity in the Presence of the Compounds According to the Invention
# In a microtiter plate (without protein binding) that tapers to a point, 10 μl of substrate mix (10 μl of volume of ATP stock solution A+25 μCi of g-33P-ATP (about 2.5 μl of stock solution B)+30 μl of poly-(Glu4Tyr) stock solution C+1.21 ml of substrate solvent), 10 μl of inhibitor solution (substances corresponding to the dilutions, 3% DMSO in substrate solvent as a control) and 10 μl of enzyme solution (11.25 μg of enzyme stock solution (KDR or FLT-1 kinase) are added at 4° C. in 1.25 ml of enzyme solution (dilute). It is thoroughly mixed and incubated for 10 minutes at room temperature. Then, 10 μl of stop solution ([…] of EDTA, pH 7.0) is added, mixed, and 10 μl of the solution is transferred to a P 81 phosphocellulose filter. Then, it is washed several times in 0.1 M phosphoric acid. The filter paper is dried, coated with Meltilex and measured in a microbeta counter.
# The IC50 values are determined from the inhibitor concentration, which is necessary to inhibit the phosphate incorporation to 50% of the uninhibited incorporation after removal of the blank reading (EDTA-stopped reaction).
# Cytochrome P450 2C19 = target: T1, Cytochrome P450 2C19 (Homo sapiens, UniProt P33261); assay: Cytochrome P450 inhibition (Crespi et al.); format: in vitro ADME; details: baculovirus/insect cell-expressed human isoenzyme 2C19; read-out: Inhibition of the Cytochrome P450 Isoenzymes IC50, 2C19
# T1 construct: host or cells: baculovirus/insect cells
# T1 sequence (P33261 whole entry): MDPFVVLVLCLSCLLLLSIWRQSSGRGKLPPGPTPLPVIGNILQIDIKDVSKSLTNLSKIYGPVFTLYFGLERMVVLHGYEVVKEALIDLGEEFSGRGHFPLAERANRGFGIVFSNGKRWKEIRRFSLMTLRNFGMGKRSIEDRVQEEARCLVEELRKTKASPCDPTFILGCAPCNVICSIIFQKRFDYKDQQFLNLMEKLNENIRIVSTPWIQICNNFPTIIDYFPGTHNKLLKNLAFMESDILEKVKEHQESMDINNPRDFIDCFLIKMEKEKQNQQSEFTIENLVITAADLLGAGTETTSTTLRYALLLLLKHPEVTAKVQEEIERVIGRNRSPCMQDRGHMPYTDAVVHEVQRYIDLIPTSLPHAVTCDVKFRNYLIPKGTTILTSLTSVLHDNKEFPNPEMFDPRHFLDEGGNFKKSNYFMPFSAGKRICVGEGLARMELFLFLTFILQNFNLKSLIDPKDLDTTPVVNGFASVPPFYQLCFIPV
# Description: (§1) The Cytochrome P450 inhibition was performed according to the publication of Crespi et al. (Anal. Biochem., 248, 188-190 (1997)) with use of baculovirus/insect cell-expressed, human Cytochrome P 450 isoenzymes (1A2, 2C9, 2C19, 2D6, 3A4).
# Cytochrome P450 1A2 = target: T2, Cytochrome P450 1A2 (Homo sapiens, UniProt P05177); assay: Cytochrome P450 inhibition (Crespi et al.); format: in vitro ADME; details: baculovirus/insect cell-expressed human isoenzyme 1A2; read-out: Inhibition of the Cytochrome P450 Isoenzymes IC50, 1A2
# T2 construct: host or cells: baculovirus/insect cells
# T2 sequence (P05177 1-516): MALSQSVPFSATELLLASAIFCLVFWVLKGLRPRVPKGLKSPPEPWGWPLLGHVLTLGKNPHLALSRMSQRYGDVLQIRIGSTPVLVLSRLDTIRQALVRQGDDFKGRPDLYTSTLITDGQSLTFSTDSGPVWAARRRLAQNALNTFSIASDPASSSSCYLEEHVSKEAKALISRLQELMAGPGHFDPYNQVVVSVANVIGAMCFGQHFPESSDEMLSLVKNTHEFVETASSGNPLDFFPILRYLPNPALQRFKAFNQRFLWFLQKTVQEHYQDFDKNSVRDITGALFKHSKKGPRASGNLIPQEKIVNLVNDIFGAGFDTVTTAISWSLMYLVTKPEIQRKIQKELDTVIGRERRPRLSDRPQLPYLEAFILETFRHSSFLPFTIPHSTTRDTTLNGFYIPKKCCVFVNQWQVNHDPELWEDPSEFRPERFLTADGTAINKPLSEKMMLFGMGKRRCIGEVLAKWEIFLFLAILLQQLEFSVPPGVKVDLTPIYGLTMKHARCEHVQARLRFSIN
# Description: as §1
# Cytochrome P450 3A4 = target: T3, Cytochrome P450 3A4 (Homo sapiens, UniProt P08684); assay: Cytochrome P450 inhibition (Crespi et al.); format: in vitro ADME; details: baculovirus/insect cell-expressed human isoenzyme 3A4; read-out: Inhibition of the Cytochrome P450 Isoenzymes IC50, 3A4
# T3 construct: host or cells: baculovirus/insect cells
# T3 sequence (P08684 whole entry): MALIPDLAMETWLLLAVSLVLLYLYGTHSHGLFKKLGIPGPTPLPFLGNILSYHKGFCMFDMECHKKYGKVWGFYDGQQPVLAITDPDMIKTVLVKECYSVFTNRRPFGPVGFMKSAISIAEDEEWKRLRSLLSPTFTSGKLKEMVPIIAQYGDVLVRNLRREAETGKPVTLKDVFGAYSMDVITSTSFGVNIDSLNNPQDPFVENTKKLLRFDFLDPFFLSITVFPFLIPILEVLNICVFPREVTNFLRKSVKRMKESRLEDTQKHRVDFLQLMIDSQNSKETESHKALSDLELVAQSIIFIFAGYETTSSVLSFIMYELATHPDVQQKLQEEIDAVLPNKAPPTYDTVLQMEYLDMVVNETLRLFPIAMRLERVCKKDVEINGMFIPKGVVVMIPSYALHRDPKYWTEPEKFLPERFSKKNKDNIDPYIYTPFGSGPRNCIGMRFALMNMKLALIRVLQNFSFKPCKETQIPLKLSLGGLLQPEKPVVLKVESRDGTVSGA
# Description: as §1
# Cytochrome P450 2C9 = target: T4, Cytochrome P450 2C9 (Homo sapiens, UniProt P11712); assay: Cytochrome P450 inhibition (Crespi et al.); format: in vitro ADME; details: baculovirus/insect cell-expressed human isoenzyme 2C9; read-out: Inhibition of the Cytochrome P450 Isoenzymes IC50, 2C9
# T4 construct: host or cells: baculovirus/insect cells
# T4 sequence (P11712 whole entry): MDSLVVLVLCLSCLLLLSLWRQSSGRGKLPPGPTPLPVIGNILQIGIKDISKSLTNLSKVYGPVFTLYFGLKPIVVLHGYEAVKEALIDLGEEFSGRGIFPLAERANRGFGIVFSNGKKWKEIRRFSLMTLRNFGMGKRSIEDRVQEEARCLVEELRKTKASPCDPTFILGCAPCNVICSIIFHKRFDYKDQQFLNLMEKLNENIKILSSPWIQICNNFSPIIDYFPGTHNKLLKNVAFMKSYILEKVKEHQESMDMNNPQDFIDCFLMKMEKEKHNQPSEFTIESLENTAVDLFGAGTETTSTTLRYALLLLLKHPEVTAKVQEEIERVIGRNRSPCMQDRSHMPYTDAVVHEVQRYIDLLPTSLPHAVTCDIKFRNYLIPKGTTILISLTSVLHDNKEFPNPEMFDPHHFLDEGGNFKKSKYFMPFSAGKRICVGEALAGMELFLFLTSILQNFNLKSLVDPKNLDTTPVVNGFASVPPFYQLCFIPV
# Description: as §1
# Cytochrome P450 2D6 = target: T5, Cytochrome P450 2D6 (Homo sapiens, UniProt P10635); assay: Cytochrome P450 inhibition (Crespi et al.); format: in vitro ADME; details: baculovirus/insect cell-expressed human isoenzyme 2D6; read-out: Inhibition of the Cytochrome P450 Isoenzymes IC50, 2D6
# T5 construct: host or cells: baculovirus/insect cells
# T5 sequence (P10635 whole entry): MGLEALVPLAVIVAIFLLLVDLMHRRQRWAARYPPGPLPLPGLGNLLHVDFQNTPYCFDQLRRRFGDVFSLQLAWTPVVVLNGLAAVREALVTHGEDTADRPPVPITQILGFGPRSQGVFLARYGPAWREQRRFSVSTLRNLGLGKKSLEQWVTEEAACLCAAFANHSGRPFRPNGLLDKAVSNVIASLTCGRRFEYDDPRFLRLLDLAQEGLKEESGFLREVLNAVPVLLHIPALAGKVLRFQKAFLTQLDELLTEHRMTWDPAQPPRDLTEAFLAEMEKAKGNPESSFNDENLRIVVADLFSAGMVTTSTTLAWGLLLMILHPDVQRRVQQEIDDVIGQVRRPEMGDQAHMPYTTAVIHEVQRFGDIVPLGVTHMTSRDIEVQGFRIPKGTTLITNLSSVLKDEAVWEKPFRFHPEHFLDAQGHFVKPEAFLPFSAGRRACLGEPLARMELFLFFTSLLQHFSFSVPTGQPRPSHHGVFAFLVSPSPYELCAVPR
# Description: as §1
# Chain of VEGFR II (KDR) (P35968 20-1356, species assumed): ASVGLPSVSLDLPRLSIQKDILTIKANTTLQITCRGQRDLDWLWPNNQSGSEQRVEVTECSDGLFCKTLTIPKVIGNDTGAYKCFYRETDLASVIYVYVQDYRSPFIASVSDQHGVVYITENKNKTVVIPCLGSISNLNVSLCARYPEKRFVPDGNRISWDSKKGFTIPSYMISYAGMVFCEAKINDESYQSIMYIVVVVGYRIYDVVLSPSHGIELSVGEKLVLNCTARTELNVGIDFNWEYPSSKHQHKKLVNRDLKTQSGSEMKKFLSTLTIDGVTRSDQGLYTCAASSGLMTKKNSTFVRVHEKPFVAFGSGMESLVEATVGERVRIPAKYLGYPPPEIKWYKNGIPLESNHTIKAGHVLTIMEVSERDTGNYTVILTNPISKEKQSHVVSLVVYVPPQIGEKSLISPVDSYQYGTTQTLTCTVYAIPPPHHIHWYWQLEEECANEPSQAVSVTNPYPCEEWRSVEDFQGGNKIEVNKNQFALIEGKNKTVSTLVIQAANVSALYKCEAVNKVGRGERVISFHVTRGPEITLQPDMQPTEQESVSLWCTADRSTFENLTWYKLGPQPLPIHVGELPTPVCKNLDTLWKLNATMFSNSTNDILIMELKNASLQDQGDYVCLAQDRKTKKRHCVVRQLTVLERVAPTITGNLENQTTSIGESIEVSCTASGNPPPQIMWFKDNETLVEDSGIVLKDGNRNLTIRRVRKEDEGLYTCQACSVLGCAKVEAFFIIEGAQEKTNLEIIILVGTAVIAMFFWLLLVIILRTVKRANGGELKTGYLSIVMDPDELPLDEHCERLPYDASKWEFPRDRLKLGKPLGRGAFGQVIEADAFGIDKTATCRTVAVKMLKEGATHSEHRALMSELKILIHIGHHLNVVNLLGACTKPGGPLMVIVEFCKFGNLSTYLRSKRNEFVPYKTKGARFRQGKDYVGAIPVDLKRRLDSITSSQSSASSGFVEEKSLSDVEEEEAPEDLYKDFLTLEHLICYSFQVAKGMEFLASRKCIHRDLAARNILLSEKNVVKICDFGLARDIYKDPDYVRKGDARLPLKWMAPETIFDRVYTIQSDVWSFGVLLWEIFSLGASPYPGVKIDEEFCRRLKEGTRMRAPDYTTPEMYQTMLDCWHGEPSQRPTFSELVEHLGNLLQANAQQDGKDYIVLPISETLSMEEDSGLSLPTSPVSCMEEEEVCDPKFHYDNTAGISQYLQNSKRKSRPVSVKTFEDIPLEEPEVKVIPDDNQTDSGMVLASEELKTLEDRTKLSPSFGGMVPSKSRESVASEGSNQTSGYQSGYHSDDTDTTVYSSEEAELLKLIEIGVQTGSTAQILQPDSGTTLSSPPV
smiles,measurement,setting,value
N#Cc1ncccc1CNc1ccccc1C(=O)Nc1cc2ccccc2cn1 [Example 3],IC50,VEGFR II (KDR),50 nM
same,melting point,,233.4 °C (dec.)
N#Cc1cc(CNc2ccccc2C(=O)Nc2ccc3cn[nH]c3c2)ccn1 [Example 16],IC50,VEGFR II (KDR),100 nM
Cn1ncc2ccc(NC(=O)c3ccccc3NCc3ccnc(C#N)c3)cc21 [Example 10],IC50,VEGFR II (KDR),200 nM
same,melting point,,155 to 158 °C
N#Cc1cc(CNc2ccccc2C(=O)Nc2ccc3c(c2)NC(=O)C3)ccn1 [Example 13],IC50,VEGFR II (KDR),200 nM
N#Cc1ccc(CNc2ccccc2C(=O)Nc2ccc3c(c2)CC(=O)N3)cn1 [Example 4],IC50,VEGFR II (KDR),300 nM
N#Cc1cc(CNc2ccccc2C(=O)Nc2cc3ccccc3cn2)ccn1 [Example 1],IC50,VEGFR II (KDR),10 nM
same,IC50,Cytochrome P450 2C19,1800 nM
same,IC50,Cytochrome P450 1A2,> 30000 nM
same,IC50,Cytochrome P450 3A4,> 30000 nM
same,IC50,Cytochrome P450 2C9,1200 nM
same,IC50,Cytochrome P450 2D6,> 30000 nM
COc1ccc2cc(NC(=O)c3ccccc3NCc3ccc(C#N)nc3)c(=O)oc2c1 [Example 6],IC50,VEGFR II (KDR),300 nM
same,melting point,,173.4 °C
N#Cc1ccc(CNc2ccccc2C(=O)Nc2cc3ccccc3cn2)cn1 [Example 2],IC50,VEGFR II (KDR),50 nM
same,melting point,,173.8 °C
N#CCn1ncc2ccc(NC(=O)c3ccccc3NCc3ccnc(C#N)c3)cc21 [Example 5],IC50,VEGFR II (KDR),300 nM
COc1ccc2cc(NC(=O)c3ccccc3NCc3ccnc(C#N)c3)c(=O)oc2c1 [Example 11],IC50,VEGFR II (KDR),200 nM
same,melting point,,165 to 167 °C
COc1ccc2cc(C)c(NC(=O)c3ccccc3NCc3ccnc(C#N)c3)nc2c1 [Example 12],IC50,VEGFR II (KDR),700 nM
same,melting point,,153 to 155 °C
Cn1cc2ccc(NC(=O)c3ccccc3NCc3ccnc(C#N)c3)cc2n1 [Example 15],IC50,VEGFR II (KDR),200 nM
